According to PMC2898382 (The Journal of Biological Chemistry, 2010):

Biological target: T1, purified bovine catalase (Bos taurus, UniProt P00432)
T1 sequence (P00432 2-527): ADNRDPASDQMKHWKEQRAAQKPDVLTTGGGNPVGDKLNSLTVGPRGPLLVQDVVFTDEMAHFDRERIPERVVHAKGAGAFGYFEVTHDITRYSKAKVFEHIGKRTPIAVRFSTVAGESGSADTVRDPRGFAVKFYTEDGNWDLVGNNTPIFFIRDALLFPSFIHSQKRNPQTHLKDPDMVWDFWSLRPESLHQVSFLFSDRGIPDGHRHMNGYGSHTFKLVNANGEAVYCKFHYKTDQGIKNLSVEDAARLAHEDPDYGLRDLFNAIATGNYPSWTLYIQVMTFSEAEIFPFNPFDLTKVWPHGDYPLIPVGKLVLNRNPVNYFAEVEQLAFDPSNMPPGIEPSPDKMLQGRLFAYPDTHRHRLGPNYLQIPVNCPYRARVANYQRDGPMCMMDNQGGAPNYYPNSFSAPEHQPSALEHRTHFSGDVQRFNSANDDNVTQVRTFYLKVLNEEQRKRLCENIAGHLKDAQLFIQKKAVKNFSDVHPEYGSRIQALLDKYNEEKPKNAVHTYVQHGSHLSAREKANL
Experiment: H2O2 breakdown at […] nm, global fit to competitive inhibition model
Format: biochemical

NC(=O)NO [Hydroxyurea]
Ki: 230 µM
